Earlier results as cited in paper PMC9697394, “Recent Synthesis, Characterization, and Pharmacological Evaluation of Multifunctional Hemorphins Containing Non-Natural Amino Acids with Potential Biological Importance” (Pharmaceuticals, 2022).
Read-outs that look alike come from different tables or passages of the source. Where no end group is shown, it is not given here. [ ]: non-standard residue; d: D form. Ac6c = NC1(C(=O)O)CCCCC1; Orn = NCCC[C@H](N)C(=O)O; Ac5c = NC1(C(=O)O)CCCC1; Dab = NCC[C@H](N)C(=O)O; Dap = NC[C@H](N)C(=O)O; Aib = CC(C)(N)C(=O)O; Sar = CNCC(=O)O

Key:
mice [1] = details: rotarod
[2] = by potentiometric titration
Source text: Table 6 Parameters of the voltammetric measurements and the electrochemical data of peptides. | column: pKa1; pKa2 Constants

mice [3] = details: MES test in mice
mice [4] = details: 6 Hz test in mice, TPE 10 min
Source text: Modifications have been made by replacing Pro at position 2 with the unnatural and conformationally restricted amino acids Ac5c and Ac6c, as well as introducing the adamantane residue from the N-terminus of the hemorphin-4 molecule that would lead to multiple target systems.

[5] = at the spinal level; 27.2 nmol i.t.
Source text: (§1) Table 5 Bioactive hemorphin peptides. | column: Effect

WK rats and SHRs = details: radiotelemetry in WK rats and SHRs; 100 µg/kg
Source text: as §1

rat [6] = details: Barnes circular maze in rat; 100 pmol
Source text: as §1

rat [7] = details: rat blood pressure assay
Source text: Table 5 Bioactive hemorphin peptides. | column: Concentration/Dose; Effect

[8] = system: rat locus coeruleus neurons; details: in vitro LC neurons; read-out: IC50, inhibition of the spontaneous firing
Source text: (§2) Table 5 Bioactive hemorphin peptides. | column: Concentration/Dose

mice [9] = details: ivPTZ seizure test in mice; TPE 10 min; rank order, hemorphin-7 analogs containing unnatural amino acids
Source text: Moreover, this peptide analog had the lowest ...

[10] = for isoelectric point (pI): Figure 6; for charge at pH 7.4 (in words): based on pKa constants and isoelectric points
Source text: The structure–activity relationship of a series of new analogs of the shortest of all hemorphins, hemorphin-4, was elucidated by Todorov et al. (compounds P4-1, P4-2, P4-3, P4-4, and P4-5). Modifications have been made by replacing Pro at position 2 with the unnatural and conformationally restricted amino acids Ac5c and Ac6c, as well as introducing the adamantane residue from the N-terminus of the hemorphin-4 molecule that would lead to multiple target systems. […] It is known that some identical amino acid residues can have different reactivity with respect to given chemical reagents. For example, in an enzyme molecule, only one or a small number of side chains of amino acid residues located in the “active” center can bind substrates or coenzymes, while others with the same chemical composition cannot. As is known, a large part of the hydro ...

[11] = system: guinea pig ileum muscle preparation; details: merged cell of Table 5, read-out: IC50, inhibition of the electrically induced contractions
Source text: as §2

rat mu-opioid receptor = details: merged cell of Table 5; read-out: IC50, binds to rat mu-opioid receptor
Source text: as §2

[12] = system: L929 and K562 tumor cells; details: 10^−7–10^−13 M concentration range
Source text: as §1

[13] = system: cerebellar Purkinje cells; details: in vitro cerebellar Purkinje cells
Source text: as §1

mice; rat = details: hot plate, tail flick test in mice; Randall–Selitto test in rat
Source text: as §1

[14] = system: tumor (L929 and A549) cell cultures; details: 0.5 µM epirubicin added 24 h prior to 1 µM valorphin; 1 µM valorphin added 48 h prior to 0.1 µM epirubicin
Source text: as §1

[15] = Table 2 (MES), LVV- and VV-hemorphin-7 analogs, unit inferred
[16] = TPE 10 min, LVV- and VV-hemorphin-7 analogs
[17] = VV-hemorphin-7 analogs containing unnatural amino acids
[18] = Table 2 (MES), VV-hemorphin-5 analogs, unit inferred
[19] = TPE 10 min, VV-hemorphin-5 analogs
[20] = LVV- and VV-hemorphin-7 analogs
[21] = Table 2 (MES), TPE 10 min, hemorphin-4 analogs, unit inferred
[22] = TPE 10 min, hemorphin-4 analogs

Compound: [dV]VYPWTQR[dF]-NH2 [H7-4]
- TD50 (median minimal neurotoxic dose) (mice [1]; [15]): > 15 mg/kg
- pKa1 [2]: 3.22
- pKa2 [2]: 6.52
- ED50 (median effective dose) (mice [3]; [16]): 2.54 µg

Compound: VVY[Ac5c]WTQRF-NH2 [VV-H-2]
- ED50 (median effective dose) (mice [4]; [17]): 5.69 µg
- pKa (Tyr) [2]: 5.34
- pKa (Val) [2]: 8.04

Compound: Leu-Val-Val-Tyr-Pro-Trp-Thr-Gln-Arg-Phe [LVV-hemorphin-7]
- effect on carrageenan-induced hyperalgesia (in words) [5]: decrease
- effect on blood pressure (in words) (WK rats and SHRs): Reduce blood pressure
- effect on spatial learning (in words) (rat [6]): enhanced spatial learning
- cardiovascular activity (in words) (rat [7]): pressor and tachycardic activities mediated by the SNS
- ED25 (rat [7]; pressor activity): 128.0 nmol/kg

Compound: VVYPWTK-NH2 [V5]
- TD50 (median minimal neurotoxic dose) (mice [1]; [18]): > 20 mg/kg
- ED50 (median effective dose) (mice [4]; VV-hemorphin-5 analogs): 9.89 µg
- pKa constant (one value given) [2]: 8.24, [48, 49]
- ED50 (median effective dose) (mice [3]; [19]): 3.19 µg

Compound: Tyr-Pro-Trp-Phe-NH2 [endomorphin-1]
- IC50 [8]: 0.0088 µM

Compound: IVYPWTQR[dF]-NH2 [H7-2]
- TD50 (median minimal neurotoxic dose) (mice [1]; [15]): > 8 mg/kg
- ED50 (median effective dose) (mice [4]; [20]): 2.6 µg
- pKa1 [2]: 3.09
- pKa2 [2]: 6.62
- ED50 (median effective dose) (mice [3]; [16]): 0.94 µg

Compound: VVYPWT[Dab]RF-NH2 [VV-H-5]
- ED50 (median effective dose) (mice [4]; [17]): 0.89 µg
- pKa (Dap, Dab) [2]: 7.21
- pKa (Tyr) [2]: 5.98
- pKa (Val) [2]: 8.08

Compound: VVY[Ac5c]WT[Dap]RF-NH2 [VV-H-6]
- pKa (Dap, Dab) [2]: 6.87
- pKa (Tyr) [2]: 4.72
- pKa (Val) [2]: 8.15

Compound: VVY[Ac6c]WT[Dab]RF-NH2 [VV-H-9]
- ED50 (median effective dose) (mice [4]; [17]): 1.09 µg
- pKa (Dap, Dab) [2]: 8.80
- pKa (Tyr) [2]: 4.66
- pKa (Val) [2]: 9.08

Compound: Y[Ac5c]WT-NH2 [P4-1]
- ED50 (median effective dose) (mice [4]; hemorphin-4 analogs): 0.52 µg
- pKa1 [2]: 3.89
- pKa2 [2]: 6.52

Compound: Tyr-Pro-Phe-Pro-NH2 [morphiceptin]
- IC50 [8]: 0.065 µM

Compound: [Aib]VVYPWTQ-NH2 [V7]
- TD50 (median minimal neurotoxic dose) (mice [1]; [18]): > 20 mg/kg
- ED50 (median effective dose) (mice [4]; VV-hemorphin-5 analogs): 6.61 µg
- pKa constant (one value given) [2]: 8.17, [48, 49]
- ED50 (median effective dose) (mice [3]; [19]): 16.55 µg

Compound: VVYPWT[Dap]RF-NH2 [VV-H-4]
- ED50 (median effective dose) (mice [4]; [17]): 3.83 µg
- Comparison of Activity Related to the Threshold Dose (µg/10 µL) for Clonic Seizures (mice [9]): VV–H7 = V–H4
- pKa (Dap, Dab) [2]: 5.46
- pKa (Tyr) [2]: 3.14
- pKa (Val) [2]: 7.10

Compound: D-Leu-Val-Val-Tyr-Pro-Trp-Thr-Gln-Arg-D-Phe-NH2 [H7-3]
- TD50 (median minimal neurotoxic dose) (mice [1]; [15]): > 8 mg/kg
- pKa1 [2]: 3.05
- pKa2 [2]: 6.78
- ED50 (median effective dose) (mice [3]; [16]): 0.68 µg

Compound: Tyr-Pro-Phe-Phe-NH2 [endomorphin-2]
- IC50 [8]: 0.0053 µM

Compound: Y[Ac6c]WT-NH2 [P4-2]
- TD50 (median minimal neurotoxic dose) (mice [1]; [21]): > 10 mg/kg
- ED50 (median effective dose) (mice [4]; hemorphin-4 analogs): 2.16 µg
- pKa1 [2]: 3.93
- pKa2 [2]: 6.71
- ED50 (median effective dose) (mice [3]; [22]): 2.33 µg

Compound: O=C1NC(=O)C(c2ccccc2)(c2ccccc2)N1 [Phenytoin, 5,5′-diphenylhydantoin, reference compound]
- TD50 (median minimal neurotoxic dose) (mice [1]; TPE 60 min, Table 2, ref not given): >100 mg/kg
- ED50 (median effective dose) (mice [3]; TPE 60 min, reference drug, ref not given): 4.92 mg/kg

Compound: VVY[Ac5c]WT[Dab]RF-NH2 [VV-H-7]
- ED50 (median effective dose) (mice [4]; [17]): 0.89 µg
- pKa (Dap, Dab) [2]: 7.26
- pKa (Tyr) [2]: 4.70
- pKa (Val) [2]: 8.21

Compound: rhodamineB-β-Ala-Tyr-Pro-Trp- Thr-NH2 [Rh-2]
- pKa1 [2]: 2.78
- pKa2 [2]: 6.38

Compound: Tyr-Pro-Trp-Gly-NH2 [Tyr-W-MIF-I]
- IC50 [8]: 3.8 µM

Compound: Tyr-Pro-Leu-Gly-NH2 [Tyr-MIF-1]
- IC50 [8]: 37.5 µM

Compound: Aaa-Tyr-Ac5c-Trp-Thr-NH2 [P4-4]
- TD50 (median minimal neurotoxic dose) (mice [1]; [21]): > 10 mg/kg
- ED50 (median effective dose) (mice [4]; hemorphin-4 analogs): 0.44 µg
- pKa1 [2]: 6.16
- pKa2 [2]: 8.90
- isoelectric point (pI) [10]: about 7
- charge at pH 7.4 (in words) [10]: positively charged
- ED50 (median effective dose) (mice [3]; [22]): 2.33 µg

Compound: rhodamineB-Gly-Tyr-Pro-Trp-Thr-NH2 [Rh-1]
- pKa1 [2]: 2.81
- pKa2 [2]: 6.60

Compound: VVY[Ac6c]WTQRF-NH2 [VV-H-3]
- ED50 (median effective dose) (mice [4]; [17]): 5.69 µg
- pKa (Tyr) [2]: 4.83
- pKa (Val) [2]: 7.49

Compound: VVYPWT[Orn]-NH2 [V4]
- TD50 (median minimal neurotoxic dose) (mice [1]; [18]): > 20 mg/kg
- ED50 (median effective dose) (mice [4]; VV-hemorphin-5 analogs): 5.09 µg
- pKa constant (one value given) [2]: 7.83, [48, 49]
- ED50 (median effective dose) (mice [3]; [19]): 3.63 µg

Compound: IVVYPWTQ-NH2 [V6]
- TD50 (median minimal neurotoxic dose) (mice [1]; [18]): > 20 mg/kg
- ED50 (median effective dose) (mice [4]; VV-hemorphin-5 analogs): 5.55 µg
- pKa constant (one value given) [2]: 8.01, [48, 49]
- ED50 (median effective dose) (mice [3]; [19]): 16.77 µg

Compound: VVYPWT[Dap]-NH2 [V2]
- ED50 (median effective dose) (mice [4]; VV-hemorphin-5 analogs): 9.97 µg
- pKa constant (one value given) [2]: 9.23, [48, 49]

Compound: DGRVVYPWTQRFRGD-NH2 [RGD2]
- pKa1 [2]: 3.48
- pKa2 [2]: 6.34

Compound: VVYPWT[Dab]-NH2 [V3]
- pKa constant (one value given) [2]: 8.12, [48, 49]

Compound: Y[dR]F[Sar] [TAPS]
- IC50 [8]: 0.0019 µM

Compound: IVVYPWTQR[dF]-NH2 [H7-1]
- ED50 (median effective dose) (mice [4]; [20]): 0.33 µg
- pKa1 [2]: 2.98
- pKa2 [2]: 6.12

Compound: VVYPWTQ [Valorphin]
- IC50 [11]: 10 µM
- IC50 (rat mu-opioid receptor): 0.014 µM
- effect on tumor cells (in words) [12]: Tumor cell cytolysis
- effect on spontaneous firing (in words) [13]: inhibition of the spontaneous firing
- analgesic effect (in words) (mice; rat): opioid analgesic activity
- cell death [14]: 100%

Compound: Tyr-Pro-Trp-Thr [hemorphin-4]
- IC50 [8]: 6.7 µM

Compound: VVY[Ac6c]WT[Dap]RF-NH2 [VV-H-8]
- ED50 (median effective dose) (mice [4]; [17]): 1.01 µg
- pKa (Dap, Dab) [2]: 8.03
- pKa (Tyr) [2]: 5.27
- pKa (Val) [2]: 9.20

Compound: Aaa-Tyr-Ac6c-Trp-Thr-NH2 [P4-5]
- TD50 (median minimal neurotoxic dose) (mice [1]; [21]): > 10 mg/kg
- ED50 (median effective dose) (mice [4]; hemorphin-4 analogs): 0.64 µg
- pKa1 [2]: 6.20
- pKa2 [2]: 9.06
- isoelectric point (pI) [10]: about 7
- charge at pH 7.4 (in words) [10]: positively charged
- ED50 (median effective dose) (mice [3]; [22]): 0.41 µg

Compound: VVYPWTQRFRGD-NH2 [RGD1]
- pKa1 [2]: 3.53
- pKa2 [2]: 6.42

Compound: rhodamineB-γ-Abu-Tyr-Pro-Trp-Thr-NH2 [Rh-3]
- pKa1 [2]: 2.86
- pKa2 [2]: 6.39

Compound: Tyr-D-Arg-Phe-Lys-NH2 [DALDA]
- IC50 [8]: 0.02 µM

Compound: Aaa-Tyr-Pro-Trp-Thr-NH2 [P4-3]
- TD50 (median minimal neurotoxic dose) (mice [1]; [21]): > 10 mg/kg
- ED50 (median effective dose) (mice [4]; hemorphin-4 analogs): 0.83 µg
- pKa1 [2]: 3.88
- pKa2 [2]: 6.93
- ED50 (median effective dose) (mice [3]; [22]): 1.66 µg
